Tested on: Detoxification protein genes
Test: DNA chip mRNA expression in yeast, detoxification protein genes (Table 8)
Assay type: cell-based, Saccharomyces cerevisiae S288C
Method in brief: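 S. cerevisiae S288C grown at 25° C in YPD were exposed in log phase for two hours to one toxic chemical at a growth-inhibiting, non-lethal concentration; untreated cells served as control. Poly(A) mRNA was reverse-transcribed with Cy3/Cy5-dUTP and hybridized to a whole-genome yeast DNA chip at 65° C for over 12 hours; values are fluorescence ratios versus untreated.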

With [Cl][Pb][Cl] [(4), PbCl2] the “The level of expressed mRNA in the presence of chemical substance/The level of expressed mRNA in the absence of chemical substance” value (yeast gene YBL064C) was 1.7, the “The level of expressed mRNA in the presence of chemical substance/The level of expressed mRNA in the absence of chemical substance” value (yeast gene YBR008C) was 0.7 and the “The level of expressed mRNA in the presence of chemical substance/The level of expressed mRNA in the absence of chemical substance” value (yeast gene YBR145W) was 0.9. The “The level of expressed mRNA in the presence of chemical substance/The level of expressed mRNA in the absence of chemical substance” value (yeast gene YBR244W) was 0.9, the “The level of expressed mRNA in the presence of chemical substance/The level of expressed mRNA in the absence of chemical substance” value (yeast gene YBR293W) was 1.8 and the “The level of expressed mRNA in the presence of chemical substance/The level of expressed mRNA in the absence of chemical substance” value (yeast gene YCL035C) was 1.7. The “The level of expressed mRNA in the presence of chemical substance/The level of expressed mRNA in the absence of chemical substance” value (yeast gene YCL069W) was 0.8, the “The level of expressed mRNA in the presence of chemical substance/The level of expressed mRNA in the absence of chemical substance” value (yeast gene YCR083W) was 1.8 and the “The level of expressed mRNA in the presence of chemical substance/The level of expressed mRNA in the absence of chemical substance” value (yeast gene YDL100C) was 0.8. The “The level of expressed mRNA in the presence of chemical substance/The level of expressed mRNA in the absence of chemical substance” value (yeast gene YDL168W) was 0.9, the “The level of expressed mRNA in the presence of chemical substance/The level of expressed mRNA in the absence of chemical substance” value (yeast gene YDR256C) was 1.3 and the “The level of expressed mRNA in the presence of chemical substance/The level of expressed mRNA in the absence of chemical substance” value (yeast gene YDR453C) was 3.0. For the same compound, the “The level of expressed mRNA in the presence of chemical substance/The level of expressed mRNA in the absence of chemical substance” value (yeast gene YDR513W) was 2.6, the “The level of expressed mRNA in the presence of chemical substance/The level of expressed mRNA in the absence of chemical substance” value (yeast gene YDR538W) was 1.2 and the “The level of expressed mRNA in the presence of chemical substance/The level of expressed mRNA in the absence of chemical substance” value (yeast gene YEL027W) was 1.1. For the same compound, the “The level of expressed mRNA in the presence of chemical substance/The level of expressed mRNA in the absence of chemical substance” value (yeast gene YEL065W) was 0.4, the “The level of expressed mRNA in the presence of chemical substance/The level of expressed mRNA in the absence of chemical substance” value (yeast gene YER185W) was 7.0 and the “The level of expressed mRNA in the presence of chemical substance/The level of expressed mRNA in the absence of chemical substance” value (yeast gene YFL050C) was 2.2. The “The level of expressed mRNA in the presence of chemical substance/The level of expressed mRNA in the absence of chemical substance” value (yeast gene YGL013C) was 0.7, the “The level of expressed mRNA in the presence of chemical substance/The level of expressed mRNA in the absence of chemical substance” value (yeast gene YGL254W) was 0.6 and the “The level of expressed mRNA in the presence of chemical substance/The level of expressed mRNA in the absence of chemical substance” value (yeast gene YGR088W) was 2.4. For the same compound, the “The level of expressed mRNA in the presence of chemical substance/The level of expressed mRNA in the absence of chemical substance” value (yeast gene YGR138C) was 1.2, the “The level of expressed mRNA in the presence of chemical substance/The level of expressed mRNA in the absence of chemical substance” value (yeast gene YGR197C) was 1.0 and the “The level of expressed mRNA in the presence of chemical substance/The level of expressed mRNA in the absence of chemical substance” value (yeast gene YGR209C) was 1.5. For the same compound, the “The level of expressed mRNA in the presence of chemical substance/The level of expressed mRNA in the absence of chemical substance” value (yeast gene YGR224W) was 1.2, the “The level of expressed mRNA in the presence of chemical substance/The level of expressed mRNA in the absence of chemical substance” value (yeast gene YHL040C) was 0.4 and the “The level of expressed mRNA in the presence of chemical substance/The level of expressed mRNA in the absence of chemical substance” value (yeast gene YHL047C) was 1.0. The “The level of expressed mRNA in the presence of chemical substance/The level of expressed mRNA in the absence of chemical substance” value (yeast gene YHR008C) was 1.8, the “The level of expressed mRNA in the presence of chemical substance/The level of expressed mRNA in the absence of chemical substance” value (yeast gene YHR048W) was 1.7 and the “The level of expressed mRNA in the presence of chemical substance/The level of expressed mRNA in the absence of chemical substance” value (yeast gene YHR053C) was 1.1. The “The level of expressed mRNA in the presence of chemical substance/The level of expressed mRNA in the absence of chemical substance” value (yeast gene YHR055C) was 1.2, the “The level of expressed mRNA in the presence of chemical substance/The level of expressed mRNA in the absence of chemical substance” value (yeast gene YIR002C) was 0.6 and the “The level of expressed mRNA in the presence of chemical substance/The level of expressed mRNA in the absence of chemical substance” value (yeast gene YIR038C) was 2.0. For the same compound, the “The level of expressed mRNA in the presence of chemical substance/The level of expressed mRNA in the absence of chemical substance” value (yeast gene YJL101C) was 1.2, the “The level of expressed mRNA in the presence of chemical substance/The level of expressed mRNA in the absence of chemical substance” value (yeast gene YJR104C) was 1.2 and the “The level of expressed mRNA in the presence of chemical substance/The level of expressed mRNA in the absence of chemical substance” value (yeast gene YKL026C) was 4.9. For the same compound, the “The level of expressed mRNA in the presence of chemical substance/The level of expressed mRNA in the absence of chemical substance” value (yeast gene YKL064W) was 0.8, the “The level of expressed mRNA in the presence of chemical substance/The level of expressed mRNA in the absence of chemical substance” value (yeast gene YKR066C) was 0.7 and the “The level of expressed mRNA in the presence of chemical substance/The level of expressed mRNA in the absence of chemical substance” value (yeast gene YKR105C) was 1.5. The “The level of expressed mRNA in the presence of chemical substance/The level of expressed mRNA in the absence of chemical substance” value (yeast gene YKR106W) was 1.4, the “The level of expressed mRNA in the presence of chemical substance/The level of expressed mRNA in the absence of chemical substance” value (yeast gene YLL028W) was 0.5 and the “The level of expressed mRNA in the presence of chemical substance/The level of expressed mRNA in the absence of chemical substance” value (yeast gene YLL057C) was 0.9. The “The level of expressed mRNA in the presence of chemical substance/The level of expressed mRNA in the absence of chemical substance” value (yeast gene YLL060C) was 2.6, the “The level of expressed mRNA in the presence of chemical substance/The level of expressed mRNA in the absence of chemical substance” value (yeast gene YLR043C) was 1.8 and the “The level of expressed mRNA in the presence of chemical substance/The level of expressed mRNA in the absence of chemical substance” value (yeast gene YLR046C) was 0.8. For the same compound, the “The level of expressed mRNA in the presence of chemical substance/The level of expressed mRNA in the absence of chemical substance” value (yeast gene YML028W) was 1.3, the “The level of expressed mRNA in the presence of chemical substance/The level of expressed mRNA in the absence of chemical substance” value (yeast gene YML116W) was 1.4 and the “The level of expressed mRNA in the presence of chemical substance/The level of expressed mRNA in the absence of chemical substance” value (yeast gene YMR015C) was 0.9. For the same compound, the “The level of expressed mRNA in the presence of chemical substance/The level of expressed mRNA in the absence of chemical substance” value (yeast gene YMR038C) was 0.8, the “The level of expressed mRNA in the presence of chemical substance/The level of expressed mRNA in the absence of chemical substance” value (yeast gene YNL239W) was 1.2 and the “The level of expressed mRNA in the presence of chemical substance/The level of expressed mRNA in the absence of chemical substance” value (yeast gene YNL241C) was 1.0. For the same compound, the “The level of expressed mRNA in the presence of chemical substance/The level of expressed mRNA in the absence of chemical substance” value (yeast gene YNL259C) was 1.2, the “The level of expressed mRNA in the presence of chemical substance/The level of expressed mRNA in the absence of chemical substance” value (yeast gene YOL158C) was 0.9 and the “The level of expressed mRNA in the presence of chemical substance/The level of expressed mRNA in the absence of chemical substance” value (yeast gene YOR031W) was 3.4. For the same compound, the “The level of expressed mRNA in the presence of chemical substance/The level of expressed mRNA in the absence of chemical substance” value (yeast gene YOR153W) was 1.1, the “The level of expressed mRNA in the presence of chemical substance/The level of expressed mRNA in the absence of chemical substance” value (yeast gene YOR247W) was 1.4 and the “The level of expressed mRNA in the presence of chemical substance/The level of expressed mRNA in the absence of chemical substance” value (yeast gene YOR251C) was 1.8. For the same compound, the “The level of expressed mRNA in the presence of chemical substance/The level of expressed mRNA in the absence of chemical substance” value (yeast gene YOR273C) was 1.0, the “The level of expressed mRNA in the presence of chemical substance/The level of expressed mRNA in the absence of chemical substance” value (yeast gene YPL163C) was 0.9 and the “The level of expressed mRNA in the presence of chemical substance/The level of expressed mRNA in the absence of chemical substance” value (yeast gene YPR200C) was 5.0.
